Measured values from the NIST ThermoML archive (doi:10.1016/j.jct.2015.08.014).

Experiment: xn = mol fraction of the nth substance listed
Details: 273.15 K, 100 kPa, Liquid, Alternating current cell with electrodes

CCCC[N+]1(C)CCCC1.N#CN=C=[N-] [1-butyl-1-methylpyrrolidinium dicyanamide] + O=C1CCCO1
electrical conductivity [S/m]
Details | Frequency=0.00446429 MHz | Frequency=0.005 MHz | Frequency=0.005454 MHz | Frequency=0.006 MHz | Frequency=0.00652174 MHz | Frequency=0.00694444 MHz | Frequency=0.0075 MHz | Frequency=0.008 MHz | Frequency=0.00857143 MHz | Frequency=0.00892857 MHz
x1 = 0.0463 | – | 0.977 | 0.977 | 0.977 | 0.978 | 0.978 | 0.978 | 0.978 | 0.978 | 0.978
x1 = 0.0987 | 1.42 | 1.42 | 1.43 | 1.43 | 1.43 | 1.43 | 1.43 | 1.43 | 1.43 | 1.43
x1 = 0.1449 | 1.56 | 1.56 | 1.56 | 1.56 | 1.56 | 1.56 | 1.56 | 1.56 | 1.57 | 1.57
x1 = 0.1859 | 1.633 | 1.633 | 1.634 | 1.634 | 1.634 | 1.634 | 1.634 | 1.635 | 1.635 | 1.635
x1 = 0.2493 | 1.516 | 1.517 | 1.517 | 1.517 | 1.517 | 1.517 | 1.517 | 1.517 | 1.517 | 1.517
x1 = 0.3029 | 1.42 | 1.42 | 1.42 | 1.42 | 1.42 | 1.42 | 1.42 | 1.42 | 1.42 | 1.42
x1 = 0.3845 | 1.25 | 1.25 | 1.25 | 1.25 | 1.25 | 1.25 | 1.25 | 1.25 | 1.25 | 1.25
x1 = 0.4985 | 1.03 | 1.03 | 1.03 | 1.03 | 1.03 | 1.03 | 1.03 | 1.03 | 1.03 | 1.03
x1 = 0.6954 | 0.742 | 0.742 | 0.742 | 0.742 | 0.742 | 0.742 | 0.742 | 0.742 | 0.742 | 0.742
x1 = 0.9013 | 0.562 | 0.562 | 0.562 | 0.562 | 0.563 | 0.563 | 0.563 | 0.563 | 0.563 | –
x1 = 1 | 0.523 | 0.523 | 0.523 | 0.523 | 0.523 | 0.523 | 0.523 | 0.523 | 0.523 | –
